Patent US6258785A, “Crystalline 9-E-(O-methyl)oxime of 11, 12-dideoxy-3-de(2,6-dideoxy-3-C-methyl-3-O-methyl-α-L-ribohexopyrano syloxy)-6-O-methyl-12,11-(iminocarbonyl-(2-(3-(4-(3-pyridinyl)1H-imadazol-1 -yl)propyl)hydrazono))-3-oxoerythromycin” (Pfizer Inc., priority 1999, dated 2001)
Counter-ions that a name gives are not always drawn.

Experiments:
[1] = type: physicochemical; settings: phosphate buffer, pH 6.5
Description: Amorphous 9-E-(O-methyl)oxime of 11,12-dideoxy-3-de(2,6-dideoxy-3-C-methyl-3-O-methyl-α-L-ribohexopyranosyloxy)-6-O-methyl-12,11-(iminocarbonyl-(2-(3-(4-(3-pyridinyl)-1H-imidazol-1-yl)propyl)hydrazono))-3-oxoerythromycin (130 g) was suspended in 3L of isopropyl ether containing 3% ethanol. The suspension was heated to 60° C. overnight and stirring was continued at room temperature (about 20-25° C.) for an additional 3 days. The resulting solid was collected by filtration to give 81 g of the title compound; mp 177° C. […] The crystals were characterized by the powder X-ray diffraction pattern noted below.
To a solution of amorphous 9-E-(O-methyl)oxime of 11,12-dideoxy-3-de(2,6-dideoxy-3-C-methyl-3-O-methyl-α-L-ribohexopyranosyloxy)-6-O-methyl-12,11-(iminocarbonyl-(2-(3-(4-(3-pyridinyl)-1H-imidazol-1-yl)propyl)hydrazono))-3-oxoerythromycin (200 mg) in 3 mL of CH2 Cl2 was added 1.19 mL of 2M solution of methanesulfonic acid in CH2 Cl2. The solution was stirred at room temperature (about 20-25° C.) for 15 minutes, and the solvent was evaporated. The residue was dissolved in 2 mL of ethyl acetate, and to this solution was added 1 mL of isopropyl ether. The solution was concentrated to approximately 0.5 mL and was left standing at room temperature (about 20-25° C.). The resulting crystals were collected by filtration to 175 mg of the title compound; mp: 193-194° C. […]

[2] = Hygroscopicity of crystalline form; type: physicochemical; settings: crystalline hemihydrate form of the free base

water solubility of the resulting crystals [1]	hygroscopicity [2]	SMILES
24 mg/mL		CC[C@H]1OC(=O)[C@H](C)C(=O)[C@H](C)[C@@H](O[C@@H]2O[C@H](C)C[C@H](N(C)C)[C@H]2O)[C@](C)(OC)C[C@@H](C)/C(=N\OC)[C@H](C)[C@H]2N(NCCCn3cnc(-c4cccnc4)c3)C(=O)N[C@]12C [Example 2, Methanesulfonic Acid Salt of 9-E-(O-Methyl)oxime of 11,12-dideoxy-3-de(2,6-dideoxy-3-C-methyl-3-O-methyl-α-L-ribohexopyranosyloxy)-6-O-methyl-12,11-(iminocarboxyl-(2-(3-(4-(3-pyridinyl)-1H-imidazol-1-yl)-propyl)hydrazo))-3-oxoerythromycin]
greater than 11 mg/ml	non-hygroscopic	CC[C@H]1OC(=O)[C@H](C)C(=O)[C@H](C)[C@@H](O[C@@H]2O[C@H](C)C[C@H](N(C)C)[C@H]2O)[C@](C)(OC)C[C@@H](C)/C(=N\OC)[C@H](C)[C@H]2N(NCCCn3cnc(-c4cccnc4)c3)C(=O)N[C@]12C [Example 1, 9-E-(O-Methyl)oxime of 11,12-Dideoxy-3-de(2. 6-dideoxy-3-C-methyl-3-O-methyl-α-L-ribohexopyranosyloxy)-6-O-methyl-12,11-(iminocarbonyl-(2-(3-(4-(3-pyridinyl)-1H-imidazol-1-yl)propyl)hydrazono))-3-oxoerythromycin hemihydrate]
